Results as given in patent US7662553B2, “Polymorphisms in the ERCC1 gene for predicting treatment outcome” (University of Southern California, priority 2002, dated 2010).

Assays:
[1] = tested on: locally advanced rectal cancer; test: Time to local recurrence after adjuvant pelvic irradiation plus 5-FU infusion (Example 1); type: in vivo, human
Method: Methods: Seventy-three (73) patients with locally advanced rectal cancer (UICC stage II and III) were selected. They had been previously treated with adjuvant pelvic irradiation (45 Gy) to the whole pelvis with an additional boost up to 54 Gy plus 5-FU infusion therapy following tumor resection tissue acquisition during surgery. QRT-PCR (a fluorescence-based, quantitative real-time detection method (Taqman®)) was performed on RNA extracted from formalin-fixed, paraffin-embedded, laser-capture-microdissected tissue to establish gene expression levels. The mRNA was reverse transcribed to cDNA and the genes of interest were quantified as well as an internal reference gene (β-Actin) as a control. All gene expression levels were log-transformed prior to analysis. The maximal c^2 method of Miller, Siegmund (Miller R. and Siegmund D. Biometrics (1982) 38:1011-1016) and Halpem (Halpem J. (1982) Biometrics 38:1017-1023) was used to determine which gene expression best segregated patients into poor- and good-prognosis subgroups 2000 bootstrap-like simulations were used to estimate the distribution of the maximal c^2 statistics under the null hypothesis of no association.

[2] = tested on: locally advanced rectal cancer; test: Pelvic recurrence after 5-FU and pelvic radiation by TS promoter genotype (Example 2); type: in vivo, human; conditions: pre- or post-operative 5-FU and pelvic radiation
Method: Methods: Forty-three (43) patients with locally advanced rectal cancer, who were treated with either pre-operative or post-operative 5-FU and pelvic radiation were analyzed. Genomic DNAs were extracted from paraffin-embedded tissue samples. Patients' genotype for the TS polymorphism was determined by polymerase chain reaction (PCR) amplification of TS promoter region.

Row | SMILES | Effect on neurotoxicity in patients treated with oxaliplatin (celebrex 200-400 mg day, p<0.01) | Patients who developed grade II or III neurotoxicity (of 56 patients with celebrex therapy in combination with oxaliplatin/5-FU chemotherapy) [patients] | Probability ± SE of 5-yr recurrence ([1]; total patients n=73, UICC stage II and III, pelvic irradiation 45 Gy with boost up to 54 Gy plus 5-FU infusion after resection) | Median time to recurrence ([1]; total patients n=73, pelvic irradiation plus 5-FU infusion after resection) [Month] | Pelvic recurrences, patients ([2]; TS (2/2) and (2/3) genotypes) [%] | Pelvic recurrences, patients ([2]; TS (3/3) genotype) [%]
1 | Cc1ccc(-c2cc(C(F)(F)F)nn2-c2ccc(S(N)(=O)=O)cc2)cc1 [celebrex] | protecting against neurotoxicity | 3 |  |  |  | 
2 | O=c1[nH]cc(F)c(=O)[nH]1 [5-FU, 5-fluorouracil] |  |  | 0.53 ± 0.08 | 57.0 | 37 | 87
